Experimental data taken from patent US6930075B1, “Fatty acid-based herbicidal composition” (priority 1990, dated 2005).

Tests used:
Assay type in all cases: in vivo
[1] = system: Sinapis arvensis (wild mustard); assay: Greenhouse post-emergence spray, plant damage rating; conditions: S. arvensis, alone and combined
Method: (§1) Three species of weed, used in each test: Hypochoeris radicata (false dandelion), Sinapis, arvensis (wild mustard), and Avena sativa (oats), were grown in a greenhouse facility in 5.5 cm square pots using a potting soil mix comprising peat, vermiculite, sand, and 4-10-10 fertilizer. Water-soluble 20-20-20 fertilizer was used as a supplement for the plants as required. The plants were selected for use based on uniformity and quality and were potted separately. One plant per pot each of H. radicata (6–10 leaves) and S. arvensis (4–6 leaves) were used. Six to eight plants of A. sativa (2–4 leaves) were used per pot. After spraying with a herbicidal composition (as described below) the pots were arranged in a randomized complete block design in sub-irrigated watering trays. Six to ten replicates (pots) were used per treatment.
(§2) Herbicidal treatments were applied using a spray chamber fitted with a TeeJet 8006E flat fan nozzle (available from Spraying Systems Co., Wheaton, Ill.), calibrated to spray at a volume of 60 gpa at 40 psi. Treatment solutions were freshly prepared for each experiment. Plant damage was assessed at 10 to 14 days after treatment using a pre-transformed 0–10 rating scale (0 representing no damage, 10 representing plant death) in accordance with the procedure outlined in Statistical Methods in Agricultural Research, Little, T. M. et al, J. Wiley and Sons, 1975, pp. 119–120, 218.

[2] = system: Avena sativa (oats); assay: as above; conditions: A. sativa, alone and combined
Method: as §1, §2

[3] = system: Hypochoeris radicata (false dandelion); assay: as above; conditions: H. radicata, alone and combined
Method: as §1, §2

[4] = system: Radish Plants; assay: Greenhouse spray, phytotoxicity and mortality over time; conditions: for Mortality: plants died of 4
Method: (§3) Herbicidal treatments were applied using a spray chamber fitted with a TeeJet 8006E flat fan nozzle (available from Spraying Systems Co., Wheaton, Ill.), calibrated to spray at a volume of 60 gpa at 40 psi. Treatment solutions were freshly prepared for each experiment. […] M. et al, J. Wiley and Sons, 1975, pp. 119–120, 218.
(§4) In a greenhouse facility four plant species were grown in 5.5 cm square pots using a potting soil mix comprising peat, vermiculite, sand and 4-10-10 fertilizer. Water soluble 20-20-20 fertilizer was used as a supplement for the plants as required. The plant species used were corn, oats, radish and morningglory. The plants were selected for use based on uniformity and quality. The corn plants used were in the 3 to 4 leaf stage and two plants were present in each pot. The oats used were in the 2 to 4 leaf stage and four plants were present per pot. The radish plants used were in the 3 to 5 leaf stage and one plant was used per pot. The morningglory were in the 2 to 4 leaf stage with one plant per pot. After spraying with a herbicidal formulation, the pots were arranged in a randomized complete block design in sub-irrigated watering trays, and included a water-treated control treatment. Four replicates (pots) were used for each treatment.
(§5) Herbicidal treatments were applied and recorded as in Example 1.

[5] = system: Oats; assay: as above
Method: as §3, §4, §5

[6] = Table 2 set 1: Round-Up 0.1%, Sodium pelargonate 0.1%
[7] = Table 2 set 2: Round-Up 0.1%, Sodium pelargonate 0.1% (so in the source)
[8] = Table 2 set 3: Round-Up 0.1%, Sodium pelargonate 0.1% (so in the source)

## CCCCCCCCC(=O)[O-].[Na+] [Sodium pelargonate]
[1]; [6]
  Phytotoxicity (%) Observed: 0%
[1]; [7]
  Phytotoxicity (%) Observed: 0%
[1]; [8]
  Phytotoxicity (%) Observed: 0%
[2]; [6]
  Phytotoxicity (%) Observed: 0%
[2]; [7]
  Phytotoxicity (%) Observed: 0%
[2]; [8]
  Phytotoxicity (%) Observed: 1%
[3]; [6]
  Phytotoxicity (%) Observed: 0%
[3]; [7]
  Phytotoxicity (%) Observed: 0%
[3]; [8]
  Phytotoxicity (%) Observed: 0%
[4]; 2 Days after Treatment
  Phyto = Phytotoxicity (0–10 rating scale): 0
  Mortality: 0
[4]; 4 Days after Treatment
  Phyto = Phytotoxicity (0–10 rating scale): 0
  Mortality: 0
[4]; 7 Days after Treatment, listed as 0.1% C9 Na^+ Salt
  Phyto = Phytotoxicity (0–10 rating scale): 0
[4]; 7 Days after Treatment, listed as 0.5% C9 Na^+ Salt
  Phyto = Phytotoxicity (0–10 rating scale): 0
[4]; 7 Days after Treatment, listed as 1.0% C9 Na^+ Salt
  Phyto = Phytotoxicity (0–10 rating scale): 0.5
[4]; 7 Days after Treatment
  Mortality: 0
[4]; 9 Days after Treatment, listed as 0.1% C9 Na^+ Salt
  Phyto = Phytotoxicity (0–10 rating scale): 0
[4]; 9 Days after Treatment, listed as 0.5% C9 Na^+ Salt
  Phyto = Phytotoxicity (0–10 rating scale): 0
[4]; 9 Days after Treatment, listed as 1.0% C9 Na^+ Salt
  Phyto = Phytotoxicity (0–10 rating scale): 0.5
[4]; 9 Days after Treatment
  Mortality: 0
[4]; 11 Days after Treatment, listed as 0.1% C9 Na^+ Salt
  Phyto = Phytotoxicity (0–10 rating scale): 0
[4]; 11 Days after Treatment, listed as 0.5% C9 Na^+ Salt
  Phyto = Phytotoxicity (0–10 rating scale): 0
[4]; 11 Days after Treatment, listed as 1.0% C9 Na^+ Salt
  Phyto = Phytotoxicity (0–10 rating scale): 0.5
[4]; 11 Days after Treatment
  Mortality: 0
[4]; 16 Days after Treatment, listed as 0.1% C9 Na^+ Salt
  Phyto = Phytotoxicity (0–10 rating scale): 0
[4]; 16 Days after Treatment, listed as 0.5% C9 Na^+ Salt
  Phyto = Phytotoxicity (0–10 rating scale): 0
[4]; 16 Days after Treatment, listed as 1.0% C9 Na^+ Salt
  Phyto = Phytotoxicity (0–10 rating scale): 0.5
[4]; 16 Days after Treatment
  Mortality: 0
[4]; 18 Days after Treatment, listed as 0.1% C9 Na^+ Salt
  Phyto = Phytotoxicity (0–10 rating scale): 0
[4]; 18 Days after Treatment, listed as 0.5% C9 Na^+ Salt
  Phyto = Phytotoxicity (0–10 rating scale): 0
[4]; 18 Days after Treatment, listed as 1.0% C9 Na^+ Salt
  Phyto = Phytotoxicity (0–10 rating scale): 0.5
[4]; 18 Days after Treatment
  Mortality: 0
[4]; 21 Days after Treatment, listed as 0.1% C9 Na^+ Salt
  Phyto = Phytotoxicity (0–10 rating scale): 0
[4]; 21 Days after Treatment, listed as 0.5% C9 Na^+ Salt
  Phyto = Phytotoxicity (0–10 rating scale): 0
[4]; 21 Days after Treatment, listed as 1.0% C9 Na^+ Salt
  Phyto = Phytotoxicity (0–10 rating scale): 0.5
[4]; 21 Days after Treatment
  Mortality: 0
[4]; 23 Days after Treatment, listed as 0.1% C9 Na^+ Salt
  Phyto = Phytotoxicity (0–10 rating scale): 0
[4]; 23 Days after Treatment, listed as 0.5% C9 Na^+ Salt
  Phyto = Phytotoxicity (0–10 rating scale): 0
[4]; 23 Days after Treatment, listed as 1.0% C9 Na^+ Salt
  Phyto = Phytotoxicity (0–10 rating scale): 0.5
[4]; 23 Days after Treatment
  Mortality: 0
[4]; 25 Days after Treatment, listed as 0.1% C9 Na^+ Salt
  Phyto = Phytotoxicity (0–10 rating scale): 0
[4]; 25 Days after Treatment, listed as 0.5% C9 Na^+ Salt
  Phyto = Phytotoxicity (0–10 rating scale): 0
[4]; 25 Days after Treatment, listed as 1.0% C9 Na^+ Salt
  Phyto = Phytotoxicity (0–10 rating scale): 0.5
[4]; 25 Days after Treatment
  Mortality: 0
[4]; 28 Days after Treatment, listed as 0.1% C9 Na^+ Salt
  Phyto = Phytotoxicity (0–10 rating scale): 0
[4]; 28 Days after Treatment, listed as 0.5% C9 Na^+ Salt
  Phyto = Phytotoxicity (0–10 rating scale): 0
[4]; 28 Days after Treatment, listed as 1.0% C9 Na^+ Salt
  Phyto = Phytotoxicity (0–10 rating scale): 0.5
[4]; 28 Days after Treatment
  Mortality: 0
[4]; 30 Days after Treatment, listed as 0.1% C9 Na^+ Salt
  Phyto = Phytotoxicity (0–10 rating scale): 0
[4]; 30 Days after Treatment, listed as 0.5% C9 Na^+ Salt
  Phyto = Phytotoxicity (0–10 rating scale): 0
[4]; 30 Days after Treatment, listed as 1.0% C9 Na^+ Salt
  Phyto = Phytotoxicity (0–10 rating scale): 0.5
[4]; 30 Days after Treatment
  Mortality: 0
[4]; 32 Days after Treatment, listed as 0.1% C9 Na^+ Salt
  Phyto = Phytotoxicity (0–10 rating scale): 0
[4]; 32 Days after Treatment, listed as 0.5% C9 Na^+ Salt
  Phyto = Phytotoxicity (0–10 rating scale): 0
[4]; 32 Days after Treatment, listed as 1.0% C9 Na^+ Salt
  Phyto = Phytotoxicity (0–10 rating scale): 0.5
[4]; 32 Days after Treatment
  Mortality: 0
[4]; 35 Days after Treatment, listed as 0.1% C9 Na^+ Salt
  Phyto = Phytotoxicity (0–10 rating scale): 0
[4]; 35 Days after Treatment, listed as 0.5% C9 Na^+ Salt
  Phyto = Phytotoxicity (0–10 rating scale): 0
[4]; 35 Days after Treatment, listed as 1.0% C9 Na^+ Salt
  Phyto = Phytotoxicity (0–10 rating scale): 0.5
[4]; 35 Days after Treatment
  Mortality: 0
[4]; 42 Days after Treatment, listed as 0.1% C9 Na^+ Salt
  Phyto = Phytotoxicity (0–10 rating scale): 0
[4]; 42 Days after Treatment, listed as 0.5% C9 Na^+ Salt
  Phyto = Phytotoxicity (0–10 rating scale): 0
[4]; 42 Days after Treatment, listed as 1.0% C9 Na^+ Salt
  Phyto = Phytotoxicity (0–10 rating scale): 0.5
[4]; 42 Days after Treatment
  Mortality: 0
[4]; 46 Days after Treatment, listed as 0.1% C9 Na^+ Salt
  Phyto = Phytotoxicity (0–10 rating scale): 0
[4]; 46 Days after Treatment, listed as 0.5% C9 Na^+ Salt
  Phyto = Phytotoxicity (0–10 rating scale): 0
[4]; 46 Days after Treatment, listed as 1.0% C9 Na^+ Salt
  Phyto = Phytotoxicity (0–10 rating scale): 0.5
[4]; 46 Days after Treatment
  Mortality: 0
[4]; 57 Days after Treatment, listed as 0.1% C9 Na^+ Salt
  Phyto = Phytotoxicity (0–10 rating scale): 0
[4]; 57 Days after Treatment, listed as 0.5% C9 Na^+ Salt
  Phyto = Phytotoxicity (0–10 rating scale): 0
[4]; 57 Days after Treatment, listed as 1.0% C9 Na^+ Salt
  Phyto = Phytotoxicity (0–10 rating scale): 0.5
[4]; 57 Days after Treatment
  Mortality: 0
[5]; 2 Days after Treatment
  Phyto (phytotoxicity ratings, 0–10 rating scale): 0
[5]; 4 Days after Treatment
  Phyto (phytotoxicity ratings, 0–10 rating scale): 0
[5]; 7 Days after Treatment
  Phyto (phytotoxicity ratings, 0–10 rating scale): 0
[5]; 9 Days after Treatment
  Phyto (phytotoxicity ratings, 0–10 rating scale): 0
[5]; 11 Days after Treatment
  Phyto (phytotoxicity ratings, 0–10 rating scale): 0
[5]; 16 Days after Treatment
  Phyto (phytotoxicity ratings, 0–10 rating scale): 0
[5]; 18 Days after Treatment
  Phyto (phytotoxicity ratings, 0–10 rating scale): 0
[5]; 21 Days after Treatment
  Phyto (phytotoxicity ratings, 0–10 rating scale): 0
[5]; 23 Days after Treatment
  Phyto (phytotoxicity ratings, 0–10 rating scale): 0
[5]; 25 Days after Treatment
  Phyto (phytotoxicity ratings, 0–10 rating scale): 0
[5]; 28 Days after Treatment
  Phyto (phytotoxicity ratings, 0–10 rating scale): 0
[5]; 30 Days after Treatment
  Phyto (phytotoxicity ratings, 0–10 rating scale): 0
[5]; 32 Days after Treatment
  Phyto (phytotoxicity ratings, 0–10 rating scale): 0
[5]; 35 Days after Treatment
  Phyto (phytotoxicity ratings, 0–10 rating scale): 0
